Source: ChEMBL document CHEMBL1781936, “Structure-based design of potent aromatase inhibitors by high-throughput docking” (J Med Chem, 2011)

Molecular target: T1, Aromatase (Homo sapiens, UniProt P11511)
T1 sequence (P11511 whole entry): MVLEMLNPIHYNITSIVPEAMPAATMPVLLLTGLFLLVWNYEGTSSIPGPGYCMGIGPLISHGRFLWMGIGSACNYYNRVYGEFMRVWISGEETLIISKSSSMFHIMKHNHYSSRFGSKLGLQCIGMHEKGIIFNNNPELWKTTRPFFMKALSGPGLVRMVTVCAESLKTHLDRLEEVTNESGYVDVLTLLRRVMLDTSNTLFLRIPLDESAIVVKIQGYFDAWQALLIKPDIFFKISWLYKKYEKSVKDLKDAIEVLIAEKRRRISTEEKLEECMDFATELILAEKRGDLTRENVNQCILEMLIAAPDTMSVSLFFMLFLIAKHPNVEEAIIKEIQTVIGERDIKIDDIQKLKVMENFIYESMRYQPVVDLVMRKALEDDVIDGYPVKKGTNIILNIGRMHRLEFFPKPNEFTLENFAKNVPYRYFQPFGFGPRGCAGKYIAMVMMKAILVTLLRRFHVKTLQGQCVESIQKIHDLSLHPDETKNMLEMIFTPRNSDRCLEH
Test: Inhibition of human recombinant aromatase using 7-methoxy-4-trifluoromethyl coumarin as substrate at 25 uM by fluorimetric analysis; call rule not given here
For CC(C)(C)C(Cn1ccnc1)NC(=O)c1cc(N2CCOCC2)nc2ccccc12 (racemic), the “inhibition (INH)” value was “Not Active”.

Molecular target: T1, Aromatase
Test: Inhibition of human recombinant aromatase using 7-methoxy-4-trifluoromethyl coumarin as substrate by fluorimetric analysis
With Cc1cc(C)c(S(=O)(=O)NCCCn2ccnc2)cc1C the IC50 was 172 nM. With COc1cc(Cl)c(S(=O)(=O)NCCCn2ccnc2)cc1Cl the IC50 was 63.7 nM. Work on Cc1ccc(C(=O)NCCCn2ccnc2)cn1 yielded an IC50 of 10600 nM. Cc1ccc(C(=O)NCCCn2ccnc2)cc1[N+](=O)[O-] gave an IC50 of 1000 nM. C=CCN(c1ccc(C(=O)NCCCn2ccnc2)cc1)S(C)(=O)=O showed an IC50 of 2500 nM. Work on O=S(=O)(NCCCn1ccnc1)c1ccc2c(c1)OCCO2 yielded an IC50 of 119 nM. COc1ccc2c(c1)OC1(CCN(C(=O)Cn3cncn3)CC1)CC2=O gave an IC50 of 5790 nM. O=C(CCn1ccnc1)NC[C@H]1CC[C@H](c2ncncc2-c2ccccn2)CC1 showed an IC50 of 3100 nM. Work on O=C(Cn1ccnc1)Nc1ccccc1Oc1ccc(F)cc1 yielded an IC50 of 248 nM. In the case of COc1cc2c(cc1-c1cncn1CCCn1ccnc1C)OCCCO2, the IC50 is reported as 498 nM. For CCOc1ccc(S(=O)(=O)NCCCn2ccnc2)c2ccccc12, the IC50 was 761 nM. COc1ccc(S(=O)(=O)NCCCn2ccnc2)cc1C showed an IC50 of 61.6 nM. With COc1ccc(S(=O)(=O)NCCCn2ccnc2)cc1C(C)(C)C the IC50 was 440 nM. For COc1ccc(S(=O)(=O)NCCCn2ccnc2)cc1F, the IC50 was 100 nM. CC(C)(C(=O)Nc1ccccc1Oc1ccc(F)cc1)n1cncn1 gave an IC50 of 13200 nM. In the case of CC1(C)Oc2ccc(S(=O)(=O)NCCCn3ccnc3)cc2NC1=O, the IC50 is reported as 499 nM. Work on O=C(C(=Cc1ccccc1)n1cncn1)c1ccc(Cl)cc1Cl (mixture of isomers) yielded an IC50 of 441 nM. With COc1ccc(C(=O)OC(COc2ccccc2)Cn2ccnc2)cc1 (racemic) the IC50 was 16.5 nM. O=c1oc2cc(OCC(O)Cn3cncn3)ccc2c2c1CCC2 (racemic) showed an IC50 of 21700 nM. Compound COc1cc(CC(=O)N2CCOC(Cn3ccnc3)C2)cc(OC)c1OC (racemic) has an IC50 of 59.2 nM. O=C(Cn1cncn1)NC(CCc1ccccc1)c1ccc2c(c1)OCCO2 (racemic) showed an IC50 of 991 nM. CCc1[nH]c2ccc(C(=O)NCC(C)n3cncn3)cc2c1C (racemic) gave an IC50 of 10600 nM. CC(CNC(=O)c1cc2c([nH]c1=O)CCCCC2)n1cncn1 (racemic) showed an IC50 of over 25000 nM. Cc1ncc(CNc2ccc(OCC(O)Cn3ccnc3)cc2)cn1 (racemic) showed an IC50 of 3500 nM. Compound COc1ccc(C(C)NC(=O)c2ccccc2Cn2cncn2)cc1F (racemic) has an IC50 of 3100 nM. COc1ccc(S(=O)(=O)N2CCCC(Cn3ccnc3)C2)cc1C(C)(C)C (racemic) showed an IC50 of 9.4 nM. In the case of COc1ccc(S(=O)(=O)N2CCOC(Cn3ccnc3)C2)cc1 (racemic), the IC50 is reported as 78.8 nM. CC(=O)c1ccc(S(=O)(=O)N2CCOC(Cn3ccnc3)C2)cc1 (racemic) showed an IC50 of 66.5 nM. With O=C(Cc1ccc(F)cc1)N1CCOC(Cn2ccnc2)C1 (racemic) the IC50 was 34.5 nM. O=C(Cc1ccc2c(c1)OCO2)N1CCOC(Cn2ccnc2)C1 (racemic) showed an IC50 of 46.7 nM.

System: not listed separately
Test: Solubility of the compound
Format: physicochemical
In the case of COc1cc2sc(NC(=O)c3ccccc3Cn3cncn3)nc2cc1Cl, the solubility is reported as “Insoluble”.
